EC50 data for 43 compounds are collected here from patent US9271960B2, “Tetrahydrocarbazoles as active agents for inhibiting VEGF production by translational control” (PTC Therapeutics, Inc., priority 2004, dated 2016).

pEC50: −log10 of the molar value.

The subject of the first test is VEGF. Kind of test: Hypoxia-inducible endogenous VEGF expression ELISA in HeLa cells. In kind it is cell-based. The conditions noted are these: Homo sapiens, HeLa, compounds 1-155, hypoxic conditions (1% O2), VEGF protein by ELISA, read-out: ELISA Activity. On the procedure: The ability of compounds of the invention to modulate hypoxia-inducible endogenous VEGF expression is analyzed as follows. VEGF protein levels are monitored by an ELISA assay (R&D Systems). Briefly, HeLa cells are cultured for 24-48 hours under hypoxic conditions (1% O2, 5% CO2, balanced with nitrogen) in the presence or absence of a compound of the invention. The conditioned media is then assayed by ELISA, and the concentration of VEGF is calculated from the standard ELISA curve of each assay.
A dose-response analysis is performed using the ELISA assay and conditions described above. A series of different concentrations (e.g., seven) are analyzed. In parallel, a dose-response cytotoxicity assay is performed using Cell Titer Glo (Promega) under the same conditions as the ELISA to ensure that the inhibition of VEGF expression is not due to cytotoxicity. Dose-response curves are plotted using percentage inhibition versus concentration of the compound, and EC50 and CC50 values are generated for each compound with the maximal inhibition set as 100% and the minimal inhibition as 0%.
Compounds 156-188 in Table 1 are commercially available. In Table 1, each of the represented compounds is followed by one to five stars.
Turning to `Cc1nnsc1C(=O)NC1CCCc2c1[nH]c1ccc(Br)cc21` (stereo not shown) [Compound 103, 4-Methyl-[1,2,3]thiadiazole-5-carboxylic acid (6-bromo-2,3,4,9-tetrahydro-1H-carbazol-1-yl)-amide], the pEC50 was 6.00 to 6.70.

Consider `CN(C(=O)c1ccccc1)C1CCCc2c1[nH]c1ccc(Br)cc21` (stereo not shown) [Compound 69, N-(6-Bromo-2,3,4,9-tetrahydro-1H-carbazol-1-yl)-N-methyl-benzamide], for which the pEC50 was 6.00 to 6.70.

For `O=C1CCCc2c1[nH]c1c(Br)cccc21` [Compound 97, 8-Bromo-2,3,4,9-tetrahydro-carbazol-1-one], the pEC50 was < 6.00.

For `N#Cc1ccc2[nH]c3c(c2c1)CCCC3n1cccc1` (stereo not shown) [Compound 59, 8-Pyrrol-1-yl-6,7,8,9-tetrahydro-5H-carbazole-3-carbonitrile], the pEC50 was 6.00 to 6.70.

In the case of `Cc1cc(C(=O)NC2CCCc3c2[nH]c2ccc(Br)cc32)no1` (stereo not shown) [Compound 151, 5-Methyl-isoxazole-3-carboxylic acid (6-bromo-2,3,4,9-tetrahydro-1H-carbazol-1-yl)-amide], the pEC50 is 7.40 to 8.00.

On to `Clc1ccc2[nH]c3c(c2c1Cl)CCCC3n1cccc1` (stereo not shown) [Compound 48, 5,6-Dichloro-1-pyrrol-1-yl-2,3,4,9-tetrahydro-1H-carbazole], for which the pEC50 is 6.70 to 7.40.

In the case of `O=C1CCCc2c1[nH]c1cc(Br)ccc21` [Compound 110, 7-Bromo-2,3,4,9-tetrahydro-carbazol-1-one], the pEC50 is < 6.00.

For the compound `Brc1ccc2[nH]c3c(c2c1)CCCC3Nc1cnccn1` (stereo not shown) [Compound 31, (6-Bromo-2,3,4,9-tetrahydro-1H-carbazol-1-yl)-pyrazin-2-yl-amine], the pEC50 was 7.40 to 8.00.

Regarding `O=C(NC1CCCc2c1[nH]c1ccc(Br)cc21)c1ccc(Cl)s1` (stereo not shown) [Compound 154, 5-Chloro-thiophene-2-carboxylic acid (6-bromo-2,3,4,9-tetrahydro-1H-carbazol-1-yl)-amide], the pEC50 was > 8.00.

Consider `Brc1ccc2[nH]c3c(c2c1)CCCC3c1nc2ccccc2o1` (stereo not shown) [Compound 129, 1-Benzooxazol-2-yl-6-bromo-2,3,4,9-tetrahydro-1H-carbazole], for which the pEC50 was > 8.00.

Regarding `c1ccn(C2CCCc3c2[nH]c2ccc(N4CCCC4)cc32)c1` (stereo not shown) [Compound 106, 6-Pyrrolidin-1-yl-1-pyrrol-1-yl-2,3,4,9-tetrahydro-1H-carbazole], the pEC50 was < 6.00.

Regarding `O/N=C1\CCCc2c1[nH]c1ccc(Br)cc21` [Compound 87, 6-Bromo-2,3,4,9-tetrahydro-carbazol-1-one oxime], the pEC50 is < 6.00.

`O=C(NC1CCCc2c1[nH]c1ccc(Br)cc21)c1ccc[nH]1` (stereo not shown) [Compound 126, 1H-Pyrrole-2-carboxylic acid (6-bromo-2,3,4,9-tetrahydro-1H-carbazol-1-yl)-amide]: the pEC50 is 6.70 to 7.40.

On to `NC1CCCc2c1[nH]c1c(Br)cccc21` (stereo not shown) [Compound 99, 8-Bromo-2,3,4,9-tetrahydro-1H-carbazol-1-ylamine], for which the pEC50 is < 6.00.

`O=C(NC1CCCc2c1[nH]c1ccc(Br)cc21)c1cccs1` (stereo not shown) [Compound 128, Thiophene-2-carboxylic acid (6-bromo-2,3,4,9-tetrahydro-1H-carbazol-1-yl)-amide]: the pEC50 is > 8.00.

On to `Brc1ccc2[nH]c3c(c2c1)CCCCC3Nc1ccccc1` (stereo not shown) [Compound 33, (2-Bromo-5,6,7,8,9,10-hexahydro-cyclohepta[b]indol-6-yl)-phenyl-amine], for which the pEC50 was 7.40 to 8.00.

For `FC(F)(F)c1ccc(NC2CCCc3c2[nH]c2ccc(C(F)(F)F)cc32)cc1` (stereo not shown) [Compound 140, (4-Trifluoromethyl-phenyl)-(6-trifluoromethyl-2,3,4,9-tetrahydro-1H-carbazol-1-yl)-amine], the pEC50 was 7.40 to 8.00.

On to `O=C(NC1CCCc2c1[nH]c1ccc(Br)cc21)c1cccc(Oc2ccccc2)c1` (stereo not shown) [Compound 30, N-(6-Bromo-2,3,4,9-tetrahydro-1H-carbazol-1-yl)-3-phenoxy-benzamide], for which the pEC50 is 7.40 to 8.00.

With `NC1CCCc2c1[nH]c1ccc(Cl)cc21` (stereo not shown) [Compound 96, 6-Chloro-2,3,4,9-tetrahydro-1H-carbazol-1-ylamine], the pEC50 was < 6.00.

Take `O=C1CCCc2c1[nH]c1ccc(Cl)cc21` [Compound 76, 6-Chloro-2,3,4,9-tetrahydro-carbazol-1-one]: the pEC50 was < 6.00.

Take `FC(F)(F)Oc1ccc2[nH]c3c(c2c1)CCCC3Nc1ccccc1` (stereo not shown) [Compound 34, Phenyl-(6-trifluoromethoxy-2,3,4,9-tetrahydro-1H-carbazol-1-yl)-amine]: the pEC50 was 7.40 to 8.00.

On to `Cn1c2c(c3cc(Br)ccc31)CCCC2=O` [Compound 88, 6-Bromo-9-methyl-2,3,4,9-tetrahydro-carbazol-1-one], for which the pEC50 is < 6.00.

`O=C(NC1CCCc2c1[nH]c1ccc(Br)cc21)c1ccoc1` (stereo not shown) [Compound 152, Furan-3-carboxylic acid (6-bromo-2,3,4,9-tetrahydro-1H-carbazol-1-yl)-amide]: the pEC50 was 6.00 to 6.70.

Regarding `Brc1ccc2[nH]c3c(c2c1)CCCC3NCCN1CCOCC1` (stereo not shown) [Compound 122, (6-Bromo-2,3,4,9-tetrahydro-1H-carbazol-1-yl)-(2-morpholin-4-yl-ethyl)-amine], the pEC50 was < 6.00.

On to `Fc1ccc(OC2CCCc3c2[nH]c2ccc(Br)cc32)cc1` (stereo not shown) [Compound 54, 6-Bromo-1-(4-fluoro-phenoxy)-2,3,4,9-tetrahydro-1H-carbazole], for which the pEC50 is 6.70 to 7.40.

As for `O/N=C1\CCCc2c1[nH]c1cc(Br)ccc21` [Compound 92, 7-Bromo-2,3,4,9-tetrahydro-carbazol-1-one oxime], the pEC50 is < 6.00.

On to `Brc1ccc2[nH]c3c(c2c1)CCc1cnoc1-3` [Compound 78, 7-Bromo-4,10-dihydro-5H-1-oxa-2,10-diaza-cyclopenta[a]fluorine], for which the pEC50 is < 6.00.

Take `O=C(NC1CCCc2c1[nH]c1ccc(Br)cc21)c1ccco1` (stereo not shown) [Compound 123, Furan-2-carboxylic acid (6-bromo-2,3,4,9-tetrahydro-1H-carbazol-1-yl)-amide]: the pEC50 is 7.40 to 8.00.

Turning to `Brc1ccc2[nH]c3c(c2c1)CCCC3` [Compound 83, 6-Bromo-2,3,4,9-tetrahydro-1H-carbazole], the pEC50 was < 6.00.

In the case of `CC(C)c1ccc(NC2CCCc3c2[nH]c2ccc(Br)cc32)cc1` (stereo not shown) [Compound 8, (6-Bromo-2,3,4,9-tetrahydro-1H-carbazol-1-yl)-(4-isopropyl-phenyl)-amine], the pEC50 is > 8.00.

Still in this test, the particulars now being: Homo sapiens, HeLa, compounds 191-239, hypoxic conditions, VEGF protein by ELISA, read-out: ELISA Activity EC50.
`OC(COc1ccc(C2CCCCc3c2[nH]c2ccc(Cl)cc32)cc1)CN1CCSCC1` (stereo not shown) [Compound 233]: the pEC50 was > 8.00.

In the case of `COCCN(C)CCCOc1ccc(C2CCCc3c2[nH]c2ccc(Br)cc32)cc1` (stereo not shown) [Compound 207], the pEC50 is 7.40 to 8.00.

Regarding `Brc1ccc2[nH]c3c(c2c1)CCCC3c1ccc(OCCCN2CCSCC2)cc1` (stereo not shown) [Compound 206], the pEC50 is > 8.00.

Turning to `OC(COc1ccc(C2CCCc3c2[nH]c2ccc(Cl)cc32)cc1)Cn1ccnc1` (stereo not shown) [Compound 220], the pEC50 is 7.40 to 8.00.

Regarding `CN1CCN(CC(O)COc2ccc(C3CCCc4c3[nH]c3ccc(Br)cc43)cc2)CC1` (stereo not shown) [Compound 201], the pEC50 is 7.40 to 8.00.

As to `Cc1ccc(C2c3[nH]c4ccc(Br)cc4c3CCC2O)cc1` (stereo not shown) [Compound 237], the pEC50 was 6.00 to 6.70.

In the case of `OC(COc1ccc(C2CCCc3c2[nH]c2ccc(Br)cc32)cc1)Cn1ccnc1` (stereo not shown) [Compound 195], the pEC50 is > 8.00.

Staying with this test, now noted: Homo sapiens, HeLa, purchased compounds 156-188, hypoxic conditions, VEGF protein by ELISA, read-out: ELISA Activity.
Consider `Cc1ccc2c(c1)c1c3n2CCN(CC(C)O)C3CCC1` (stereo not shown) [Compound 176, 1-(8-Methyl-1,2,3a,4,5,6-hexahydro-pyrazino[3,2,1-jk]carbazoI-3-yl)-propan-2-ol], for which the pEC50 is < 6.00.

Regarding `Cc1ccc2c(c1)c1c3n2CCCN(Cc2cccc(Cl)c2)C3CCC1` (stereo not shown) [Compound 180, 4-(3-Chloro-benzyl)-11-methyl-1,2,3,3a,4,5,6,7-octahydro-[1,4]diazepino[3,2,1-jk]carbazole], the pEC50 was < 6.00.

As for `COc1ccc(NC(=S)N2CCn3c4c(c5cc(C)ccc53)CCCC42)cc1` (stereo not shown) [Compound 172, 8-Methyl-1,2,3a,4,5,6-hexahydro-pyrazino[3,2,1-jk]carbazole-3-carbothioic acid (4-methoxy-phenyl)-amide], the pEC50 is < 6.00.

As for `Brc1ccc2[nH]c3c(c2c1)CCCC3n1cccc1` (stereo not shown) [Compound 156, 6-Bromo-1-pyrrol-1-yl-2,3,4,9-tetrahydro-1H-carbazole], the pEC50 is > 8.00.

For `COc1ccc(Oc2ccc3c(c2)c2c4n3CCNC4CCC2)cc1` (stereo not shown) [Compound 187, 8-(4-Methoxy-phenoxy)-2,3,3a,4,5,6-hexahydro-1H-pyrazino[3,2,1-jk]carbazole methanesulfonic acid], the pEC50 is < 6.00.

The same test, now with this note: Homo sapiens, HeLa, purchased compounds 156-188, hypoxic conditions, VEGF protein by ELISA, read-out: ELISA EC50.
As to `Cc1ccc2c(c1)c1c3n2CCN(CC(C)O)C3CCC1` (stereo not shown) [Compound 176, 1-(8-Methyl-1,2,3a,4,5,6-hexahydro-pyrazino[3,2,1-jk]carbazoI-3-yl)-propan-2-ol], the pEC50 is < 5.00.

As to `Cc1ccc2c(c1)c1c3n2CCCN(Cc2cccc(Cl)c2)C3CCC1` (stereo not shown) [Compound 180, 4-(3-Chloro-benzyl)-11-methyl-1,2,3,3a,4,5,6,7-octahydro-[1,4]diazepino[3,2,1-jk]carbazole], the pEC50 is < 5.00.

As to `COc1ccc(NC(=S)N2CCn3c4c(c5cc(C)ccc53)CCCC42)cc1` (stereo not shown) [Compound 172, 8-Methyl-1,2,3a,4,5,6-hexahydro-pyrazino[3,2,1-jk]carbazole-3-carbothioic acid (4-methoxy-phenyl)-amide], the pEC50 was < 5.00.

On to `Brc1ccc2[nH]c3c(c2c1)CCCC3n1cccc1` (stereo not shown) [Compound 156, 6-Bromo-1-pyrrol-1-yl-2,3,4,9-tetrahydro-1H-carbazole], for which the pEC50 is 8.00.

Take `COc1ccc(Oc2ccc3c(c2)c2c4n3CCNC4CCC2)cc1` (stereo not shown) [Compound 187, 8-(4-Methoxy-phenoxy)-2,3,3a,4,5,6-hexahydro-1H-pyrazino[3,2,1-jk]carbazole methanesulfonic acid]: the pEC50 is 4.74.

Staying with this test, now noted: purchased compounds 156-188, hypoxic conditions, VEGF protein by ELISA, read-out: ELISA Activity.
For the compound “3-(8-Cyclohexyl-1,2,3a,4,5,6- hexahydro-pyrazino[3,2,1- jk]carbazol-3-yl)-propionic acid [Compound 183]”, the pEC50 is < 6.00.

Still in this test, the particulars now being: purchased compounds 156-188, hypoxic conditions, VEGF protein by ELISA, read-out: ELISA EC50.
As for “3-(8-Cyclohexyl-1,2,3a,4,5,6- hexahydro-pyrazino[3,2,1- jk]carbazol-3-yl)-propionic acid [Compound 183]”, the pEC50 is < 5.00.
